Data as given in US12134617B1, “Pyrimido[1′6′:1,5]pyrazolo[4,3-c][1,7]naphthyridines as CK2 inhibitors” (KING FAISAL UNIVERSITY, priority 2024, dated 2024).

What was measured:
HL60 (leukemia) = assay: In vitro cytotoxic activity (MTT) assay, HL60; format: cell-based; conditions: Homo sapiens, HL-60; HL60 cells, exposed for 96 hours, 50% inhibition of cell proliferation; read-out: Cytotoxicity activity IC50, HL60 (leukemia)
Description: (§1) In Vitro Cytotoxic Activity Assay
(§2) Compounds 1-16 were screened for their in vitro cytotoxic activity utilizing a 3-(4,5-dimethyl-thiazol-2-yl)-2,5-diphenyltetrazolium bromide (MTT) assay against selected cancer human cell lines consisting of PC3 (prostate), HCT116 (colon), A375 (melanoma), H1299 (lung), MIAPaCa-2 (pancreas), HL60 (leukemia), MCF7 (breast), MDA-MB-231 (breast) (T. Mosmann, J. Immunol. Meth., 1983, 65, 55-63). The cells were cultured at 37° C. in RMPI1640 medium supplemented with 10% fetal bovine serum, 50 IU/mL penicillin, and 50 μg/mL streptomycin in a 5% CO2 incubator. All cells were sub-cultured 3 times/week by trypsinisation. Viable cells were seeded and allowed to adhere for 12 hours before a test drug was added in 96-well plates at an initial density of 1.0×10^5 cells/mL. Tumor cell lines were separately exposed to various concentrations of the tested compounds followed by incubation at a temperature of 37° C. during 96 hours inside a medium of fresh RMPI 1640. Cells were subsequently incubated at 37° C. using MTT at 0.5 mg/mL during 4 hours. After removal of supernatant, formazan crystals were dissolved in isopropanol and the optical density was measured at 570 nm. CX-4945 was used as a positive control.

A375 (melanoma) = assay: In vitro cytotoxic activity (MTT) assay, A375; format: cell-based; conditions: Homo sapiens, A-375; A375 cells, exposed for 96 hours, 50% inhibition of cell proliferation; read-out: Cytotoxicity activity IC50, A375 (melanoma)
Description: as §1, §2

PC3 (prostate) = assay: In vitro cytotoxic activity (MTT) assay, PC3; format: cell-based; conditions: Homo sapiens, PC-3; PC3 cells, exposed for 96 hours, 50% inhibition of cell proliferation; read-out: Cytotoxicity activity IC50, PC3 (prostate)
Description: as §1, §2

[1] = target: T1, recombinant human CK2 (RRββ-holoenzyme) (Homo sapiens, UniProt P68400); assay: CK2 Kinase Assay (33P-ATP, filter plate); format: biochemical; conditions: recombinant human CK2, final ATP concentration 15 μM, 10 min at 30° C.; read-out: protein kinase CK2 IC50
T1 construct: purchased Millipore
Description: Evaluation of Inhibitory Activity on Protein Kinase CK2
CK2 Kinase Assay was conducted using the protocol as described in Pierre F. et al; J. Med. Chem. 2011, 54, 635-654. The tested compounds in aqueous solution were added at a volume of 10 μL to a reaction mixture comprising 10 μL of assay dilution buffer (ADB; 20 mM MOPS, pH 7.2, 25 mM β-glycerol phosphate, 5 mM EGTA, 1 mM sodium orthovanadate, and 1 mM dithiothreitol), 10 μL of substrate peptide (RRRDDDSDDD, dissolved in ADB at a concentration of 1 mM), 10 μL of recombinant human CK2 (RRββ-holoenzyme, 25 ng dissolved in ADB; Millipore). Reactions were initiated by the addition of 10 μL of ATP solution (90% 75 mMMgCl2, 75 μM ATP (final ATP concentration: 15 μM) dissolved in ADB; 10% [γ-33P] ATP (stock 1mCi/100 μL; 3000 Ci/mmol (Perkin-Elmer) and maintained for 10 min at 30° C. The reactions were quenched with 100 μL of 0.75% phosphoric acid and then transferred to and filtered through a phosphor cellulose filter plate (Millipore). After washing each well five times with 0.75% phosphoric acid, the plate was dried under vacuum for 5 min and, following the addition of 15 μL of scintillation fluid to each well, the residual radioactivity was measured using a Wallac luminescence counter. The IC50 values were derived from eight concentrations of test inhibitors.

HCT116 (colon) = assay: In vitro cytotoxic activity (MTT) assay, HCT116; format: cell-based; conditions: Homo sapiens, HCT-116; HCT116 cells, exposed for 96 hours, 50% inhibition of cell proliferation; read-out: Cytotoxicity activity IC50, HCT116 (colon)
Description: as §1, §2

H1299 (lung) = assay: In vitro cytotoxic activity (MTT) assay, H1299; format: cell-based; conditions: Homo sapiens, NCI-H1299; H1299 cells, exposed for 96 hours, 50% inhibition of cell proliferation; read-out: Cytotoxicity activity IC50, H1299 (lung)
Description: as §1, §2

MCF7 (breast) = assay: In vitro cytotoxic activity (MTT) assay, MCF7; format: cell-based; conditions: Homo sapiens; MCF7 cells, exposed for 96 hours, 50% inhibition of cell proliferation; read-out: Cytotoxicity activity IC50, MCF7 (breast)
Description: as §1, §2

MDA-MB-231 (breast) = assay: In vitro cytotoxic activity (MTT) assay, MDA-MB-231; format: cell-based; conditions: Homo sapiens; MDA-MB-231 cells, exposed for 96 hours, 50% inhibition of cell proliferation; read-out: Cytotoxicity activity IC50, MDA-MB-231 (breast)
Description: as §1, §2

MIAPaCa-2 (pancreas) = assay: In vitro cytotoxic activity (MTT) assay, MIAPaCa-2; format: cell-based; conditions: Homo sapiens, MIA PaCa-2; MIAPaCa-2 cells, exposed for 96 hours, 50% inhibition of cell proliferation; read-out: Cytotoxicity activity IC50, MIAPaCa-2 (pancreas)
Description: as §1, §2

T1 sequence (P68400 whole entry): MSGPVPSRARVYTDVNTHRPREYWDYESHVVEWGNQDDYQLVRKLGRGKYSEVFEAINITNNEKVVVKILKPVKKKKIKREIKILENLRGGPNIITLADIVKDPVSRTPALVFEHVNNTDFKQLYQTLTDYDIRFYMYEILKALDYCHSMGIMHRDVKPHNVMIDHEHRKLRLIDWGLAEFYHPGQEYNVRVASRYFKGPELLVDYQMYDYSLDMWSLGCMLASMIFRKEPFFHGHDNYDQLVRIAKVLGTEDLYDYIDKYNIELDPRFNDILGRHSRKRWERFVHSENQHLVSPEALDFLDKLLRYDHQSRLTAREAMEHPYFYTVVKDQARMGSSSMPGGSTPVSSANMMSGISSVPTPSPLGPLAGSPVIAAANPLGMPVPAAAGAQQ
T1 sequence (P67870 whole entry partner): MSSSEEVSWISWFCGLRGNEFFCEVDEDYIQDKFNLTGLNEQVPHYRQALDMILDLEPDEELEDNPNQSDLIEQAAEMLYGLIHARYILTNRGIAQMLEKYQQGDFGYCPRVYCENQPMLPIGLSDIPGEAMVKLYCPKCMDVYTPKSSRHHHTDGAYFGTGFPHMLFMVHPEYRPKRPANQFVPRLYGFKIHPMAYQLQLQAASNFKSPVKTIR

IC50 [1]: 47 nM
Structure (SMILES): Clc1cccc(Nc2nc3cnccc3c3nn4cnccc4c23)c1 [Compound 1, N-(3-chlorophenyl)pyrimido[1′,6′:1,5]pyrazolo[4,3-c][1,7]naphthyridin-6-amine]
IC50 (HL60 (leukemia)): 4400 nM
IC50 (A375 (melanoma)): 3200 nM
IC50 (PC3 (prostate)): 1700 nM
IC50 (HCT116 (colon)): 1500 nM
IC50 (H1299 (lung)): 2600 nM
IC50 (MCF7 (breast)): 5700 nM
IC50 (MDA-MB-231 (breast)): 4800 nM
IC50 (MIAPaCa-2 (pancreas)): 1300 nM
